In brackets after ≈: the same amount, converted by molar mass. Several values for one entry are separate records, joined by “and”; a condition that tells them apart may be missing. Identical values can stand only once.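 Briefly, cells in 96-well plates were exposed to five compound concentrations for 48 h, and endpoints were estimated by linear interpolation. GI50 is the concentration that inhibits growth by half. TGI marks complete inhibition of growth.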 Where a SMILES comes first, the peptide text is derived from it. [ ]: non-standard residue; d: D form. Ac5c = NC1(C(=O)O)CCCC1
Tests used:
Experiment in all cases: NCI tumour cell line growth inhibition, 48 h
[1] = tested on: MDA-N
[2] = tested on: P388 leukemia
[3] = tested on: P388/ADR leukemia

SMILES	TGI [1]	further results
O=c1ccn(C2OC(CO)C(O)C2F)c(=O)[nH]1 (stereo unspecified)	> 100 µM	
CC(=O)CC(=O)Nc1ccc2ccccc2c1	> 100 µM	
COC(=O)CCc1cc(OC)c2c(c1)C(C(=O)OC)C(c1ccc(OC)c(OC)c1)O2 (stereo unspecified)	> 100 µM and 23.2 µM	
Cn1ccnc1CC(C)(O)c1ccccc1 (stereo unspecified)	> 100 µM	
CCC1(CC)C(=O)OC(=O)C1(CC)CC	> 100 µM	
CCOC(=O)Nc1nc2ccc(Cn3cccc3)cc2[nH]1	0.965 µM	
CCN(CC)CCCC(C)Nc1c2ccc(Cl)cc2nc2ccc(OC)cc12 (stereo unspecified)	3.95 µM	
NC1(C(=O)NC2(C(=O)O)CCCC2)CCCC1 (H-[Ac5c]-[Ac5c]-OH)	> 100 µM	
Cc1c[nH]c2c(O)cc3c(c12)[C@H](CCl)CN3C(=O)c1cc2cc(NC(=O)Nc3ccc4[nH]c(C(=O)N5C[C@@H](CCl)c6c5cc(O)c5[nH]cc(C)c65)cc4c3)ccc2[nH]1		GI50 [1]: 0.0123 µM; GI50 [2]: 0.000887 ng/mL and 0.888 ng/mL; GI50 [3]: 0.888 ng/mL (≈ 0.00109 µM); TGI [3]: 83 ng/mL (≈ 0.102 µM)
CCN(CC)c1cc2c3c(c1)CCCN3CCC2	> 10 µM	
CCN(CC)CCC(=O)NC1c2ccc(Cl)cc2Oc2c(C)cccc21 (stereo unspecified)	32.3 µM	
CCN(CC)CC(O)CNc1ccc(NCC2CO2)c2c1C(=O)c1ccccc1C2=O (stereo unspecified)	2.31 µM	GI50 [1]: 0.257 µM
C[C@]12C[C@H](c3ccccc3)Nc3ccccc3N1C(c1ccccc1)=NO2	> 100 µM	
CO[C@@H]1/C=C\C=C(/C)C(=O)NC2=CC(=O)C(NCCN(C)C)=C(C[C@@H](C)C[C@@H](OC)[C@@H](O)[C@H](C)/C=C(\C)[C@H]1OC(N)=O)C2=O	1.92 µM and 2.18 µM	
CC1(C)C2CCC3=C(CCC4(C)C5C[C@](C)(C(=O)O)CC[C@]5(C)CC[C@]34C)[C@@]2(C)CC[C@@H]1O (stereo partly specified)	37.8 µM	
Nc1ccc(N(S(=O)(=O)c2ccccc2)S(=O)(=O)c2ccccc2)c(Cl)c1	> 100 µM	
CN1CCN(CCCN)CC1	> 100 µM	
